Columns and labels:
[1] = Antagonist activity at CCR5 in HOS cells assessed as inhibition of HIV-1 Ba-L infection
[2] = Antagonist activity at CCR5 in human peripheral blood lymphocytes cells assessed as inhibition of HIV-1 Ba-L infection

| SMILES | IC50 [1] | IC50 [2] |
| --- | --- | --- |
| C=CCN(C(=O)Cc1ccc(C(N)=O)cc1)C1CCN(CCC2(c3cccc(F)c3)CCN(C(=O)c3cc(S(=O)(=O)NC(C)(C)C)c(F)cc3Cl)CC2)CC1 [4-(2-(allyl(1-(2-(1-(5-(N-tert-butylsulfamoyl)-2-chloro-4-fluorobenzoyl)-4-(3-fluorophenyl)piperidin-4-yl)ethyl)piperidin-4-yl)amino)-2-oxoethyl)benzamide] | 0.21 µM |  |
| C=CCN(C(=O)Nc1ccc(OC(C)=O)cc1)C1CCN(CCC2(c3cccc(F)c3)CCN(C(=O)c3cc(S(=O)(=O)NC(C)(C)C)c(F)cc3Cl)CC2)CC1 [4-(3-allyl-3-(1-(2-(1-(5-(N-tert-butylsulfamoyl)-2-chloro-4-fluorobenzoyl)-4-(3-fluorophenyl)piperidin-4-yl)ethyl)piperidin-4-yl)ureido)phenyl acetate] | 0.06 µM |  |
| C=CCN(C(=O)NCc1ccc(C(N)=O)cc1)C1CCN(CCC2(c3cccc(F)c3)CCN(C(=O)c3cc(S(=O)(=O)NC(C)(C)C)c(F)cc3Cl)CC2)CC1 [4-((3-allyl-3-(1-(2-(1-(5-(N-tert-butylsulfamoyl)-2-chloro-4-fluorobenzoyl)-4-(3-fluorophenyl)piperidin-4-yl)ethyl)piperidin-4-yl)ureido)methyl)benzamide] | 3.1 µM |  |
| C=CCN(C(=O)OCc1ccc(S(C)(=O)=O)cc1)C1CCN(CCC2(c3cccc(F)c3)CCN(C(=O)c3cc(S(=O)(=O)NC(C)(C)C)c(F)cc3Cl)CC2)CC1 [4-(methylsulfonyl)benzyl allyl(1-(2-(1-(5-(N-tert-butylsulfamoyl)-2-chloro-4-fluorobenzoyl)-4-(3-fluorophenyl)piperidin-4-yl)ethyl)piperidin-4-yl)carbamate] | 0.017 µM | 0.0045 µM |
| C=CCN(C(=O)OCc1ccc(OC(F)(F)F)cc1)C1CCN(CCC2(c3cccc(F)c3)CCN(C(=O)c3cc(S(=O)(=O)NC(C)(C)C)c(F)cc3Cl)CC2)CC1 [4-(trifluoromethoxy)benzyl allyl(1-(2-(1-(5-(N-tert-butylsulfamoyl)-2-chloro-4-fluorobenzoyl)-4-(3-fluorophenyl)piperidin-4-yl)ethyl)piperidin-4-yl)carbamate] | 0.027 µM |  |
| C=CCN(C(=O)OCc1ccc(C(F)(F)F)cc1)C1CCN(CCC2(c3cccc(F)c3)CCN(C(=O)c3cc(S(=O)(=O)NC(C)(C)C)c(F)cc3Cl)CC2)CC1 [4-(trifluoromethyl)benzyl allyl(1-(2-(1-(5-(N-tert-butylsulfamoyl)-2-chloro-4-fluorobenzoyl)-4-(3-fluorophenyl)piperidin-4-yl)ethyl)piperidin-4-yl)carbamate] | 0.015 µM | 0.04 µM |
| C=CCN(C(=O)OCc1ccc(C#N)cc1)C1CCN(CCC2(c3cccc(F)c3)CCN(C(=O)c3cc(S(=O)(=O)NC(C)(C)C)c(F)cc3Cl)CC2)CC1 [4-cyanobenzyl allyl(1-(2-(1-(5-(N-tert-butylsulfamoyl)-2-chloro-4-fluorobenzoyl)-4-(3-fluorophenyl)piperidin-4-yl)ethyl)piperidin-4-yl)carbamate] | 0.0045 µM |  |
| C=CCN(C(=O)OCc1ccc(F)cc1)C1CCN(CCC2(c3cccc(F)c3)CCN(C(=O)c3cc(S(=O)(=O)NC(C)(C)C)c(F)cc3Cl)CC2)CC1 [4-fluorobenzyl allyl(1-(2-(1-(5-(N-tert-butylsulfamoyl)-2-chloro-4-fluorobenzoyl)-4-(3-fluorophenyl)piperidin-4-yl)ethyl)piperidin-4-yl)carbamate] | 0.022 µM |  |
| C=CCN(C(=O)OCc1ccc([N+](=O)[O-])cc1)C1CCN(CCC2(c3cccc(F)c3)CCN(C(=O)c3cc(S(=O)(=O)NC(C)(C)C)c(F)cc3Cl)CC2)CC1 [4-nitrobenzyl allyl(1-(2-(1-(5-(N-tert-butylsulfamoyl)-2-chloro-4-fluorobenzoyl)-4-(3-fluorophenyl)piperidin-4-yl)ethyl)piperidin-4-yl)carbamate] | 0.0086 µM | 0.024 µM |
| C=CCN(C(=O)Nc1ccc(S(C)(=O)=O)cc1)C1CCN(CCC2(c3cccc(F)c3)CCN(C(=O)c3cc(S(=O)(=O)NC(C)(C)C)c(F)cc3Cl)CC2)CC1 [5-(4-(2-(4-(1-allyl-3-(4-(methylsulfonyl)phenyl)ureido)piperidin-1-yl)ethyl)-4-(3-fluorophenyl)piperidine-1-carbonyl)-N-tert-butyl-4-chloro-2-fluorobenzenesulfonamide] | 0.0115 µM | 0.035 µM |
| C=CCN(C(=O)NCc1ccc(C(F)(F)F)cc1)C1CCN(CCC2(c3cccc(F)c3)CCN(C(=O)c3cc(S(=O)(=O)NC(C)(C)C)c(F)cc3Cl)CC2)CC1 [5-(4-(2-(4-(1-allyl-3-(4-(trifluoromethyl)benzyl)ureido)piperidin-1-yl)ethyl)-4-(3-fluorophenyl)piperidine-1-carbonyl)-N-tert-butyl-4-chloro-2-fluorobenzenesulfonamide] | 0.0069 µM | 0.042 µM |
| C=CCN(C(=O)Nc1ccc(C(F)(F)F)cc1)C1CCN(CCC2(c3cccc(F)c3)CCN(C(=O)c3cc(S(=O)(=O)NC(C)(C)C)c(F)cc3Cl)CC2)CC1 [5-(4-(2-(4-(1-allyl-3-(4-(trifluoromethyl)phenyl)ureido)piperidin-1-yl)ethyl)-4-(3-fluorophenyl)piperidine-1-carbonyl)-N-tert-butyl-4-chloro-2-fluorobenzenesulfonamide] | 0.064 µM |  |
| C=CCN(C(=O)NCc1ccc(C#N)cc1)C1CCN(CCC2(c3cccc(F)c3)CCN(C(=O)c3cc(S(=O)(=O)NC(C)(C)C)c(F)cc3Cl)CC2)CC1 [5-(4-(2-(4-(1-allyl-3-(4-cyanobenzyl)ureido)piperidin-1-yl)ethyl)-4-(3-fluorophenyl)piperidine-1-carbonyl)-N-tert-butyl-4-chloro-2-fluorobenzenesulfonamide] | 0.0039 µM | 0.0037 µM |
| C=CCN(C(=O)Nc1ccc(C#N)cc1)C1CCN(CCC2(c3cccc(F)c3)CCN(C(=O)c3cc(S(=O)(=O)NC(C)(C)C)c(F)cc3Cl)CC2)CC1 [5-(4-(2-(4-(1-allyl-3-(4-cyanophenyl)ureido)piperidin-1-yl)ethyl)-4-(3-fluorophenyl)piperidine-1-carbonyl)-N-tert-butyl-4-chloro-2-fluorobenzenesulfonamide] | 0.0205 µM | 0.025 µM |
| C=CCN(C(=O)NCc1ccc(F)cc1)C1CCN(CCC2(c3cccc(F)c3)CCN(C(=O)c3cc(S(=O)(=O)NC(C)(C)C)c(F)cc3Cl)CC2)CC1 [5-(4-(2-(4-(1-allyl-3-(4-fluorobenzyl)ureido)piperidin-1-yl)ethyl)-4-(3-fluorophenyl)piperidine-1-carbonyl)-N-tert-butyl-4-chloro-2-fluorobenzenesulfonamide] | 0.046 µM |  |
| C=CCN(C(=O)Nc1ccc(F)cc1)C1CCN(CCC2(c3cccc(F)c3)CCN(C(=O)c3cc(S(=O)(=O)NC(C)(C)C)c(F)cc3Cl)CC2)CC1 [5-(4-(2-(4-(1-allyl-3-(4-fluorophenyl)ureido)piperidin-1-yl)ethyl)-4-(3-fluorophenyl)piperidine-1-carbonyl)-N-tert-butyl-4-chloro-2-fluorobenzenesulfonamide] | 0.034 µM |  |
| C=CCN(C(=O)CCc1ccc(OC(F)(F)F)cc1)C1CCN(CCC2(c3cccc(F)c3)CCN(C(=O)c3cc(S(=O)(=O)NC)c(F)cc3Cl)CC2)CC1 [N-allyl-N-(1-(2-(1-(2-chloro-4-fluoro-5-(N-methylsulfamoyl)benzoyl)-4-(3-fluorophenyl)piperidin-4-yl)ethyl)piperidin-4-yl)-3-(4-(trifluoromethoxy)phenyl)propanamide] | 0.42 µM |  |
| C=CCN(C(=O)CCc1ccc(C#N)cc1)C1CCN(CCC2(c3cccc(F)c3)CCN(C(=O)c3cc(S(=O)(=O)NC)c(F)cc3Cl)CC2)CC1 [N-allyl-N-(1-(2-(1-(2-chloro-4-fluoro-5-(N-methylsulfamoyl)benzoyl)-4-(3-fluorophenyl)piperidin-4-yl)ethyl)piperidin-4-yl)-3-(4-cyanophenyl)propanamide] | 0.15 µM |  |
| C=CCN(C(=O)Cc1ccc(S(C)(=O)=O)cc1)C1CCN(CCC2(c3cccc(F)c3)CCN(C(=O)c3cc(S(=O)(=O)NC(C)(C)C)c(F)cc3Cl)CC2)CC1 [N-allyl-N-(1-(2-(1-(5-(N-tert-butylsulfamoyl)-2-chloro-4-fluorobenzoyl)-4-(3-fluorophenyl)piperidin-4-yl)ethyl)piperidin-4-yl)-2-(4-(methylsulfonyl)phenyl)acetamide] | 0.065 µM |  |
| C=CCN(C(=O)Cc1ccc(OC(F)(F)F)cc1)C1CCN(CCC2(c3cccc(F)c3)CCN(C(=O)c3cc(S(=O)(=O)NC(C)(C)C)c(F)cc3Cl)CC2)CC1 [N-allyl-N-(1-(2-(1-(5-(N-tert-butylsulfamoyl)-2-chloro-4-fluorobenzoyl)-4-(3-fluorophenyl)piperidin-4-yl)ethyl)piperidin-4-yl)-2-(4-(trifluoromethoxy)phenyl)acetamide] | 0.018 µM | 0.087 µM |
| C=CCN(C(=O)Cc1ccc(C(F)(F)F)cc1)C1CCN(CCC2(c3cccc(F)c3)CCN(C(=O)c3cc(S(=O)(=O)NC(C)(C)C)c(F)cc3Cl)CC2)CC1 [N-allyl-N-(1-(2-(1-(5-(N-tert-butylsulfamoyl)-2-chloro-4-fluorobenzoyl)-4-(3-fluorophenyl)piperidin-4-yl)ethyl)piperidin-4-yl)-2-(4-(trifluoromethyl)phenyl)acetamide] | 0.0033 µM | 0.053 µM |
| C=CCN(C(=O)Cc1ccc(F)cc1)C1CCN(CCC2(c3cccc(F)c3)CCN(C(=O)c3cc(S(=O)(=O)NC(C)(C)C)c(F)cc3Cl)CC2)CC1 [N-allyl-N-(1-(2-(1-(5-(N-tert-butylsulfamoyl)-2-chloro-4-fluorobenzoyl)-4-(3-fluorophenyl)piperidin-4-yl)ethyl)piperidin-4-yl)-2-(4-fluorophenyl)acetamide] | 0.052 µM |  |
| C=CCN(C(=O)OCc1ccc(C(=O)OC)cc1)C1CCN(CCC2(c3cccc(F)c3)CCN(C(=O)c3cc(S(=O)(=O)NC(C)(C)C)c(F)cc3Cl)CC2)CC1 [methyl 4-((allyl(1-(2-(1-(5-(N-tert-butylsulfamoyl)-2-chloro-4-fluorobenzoyl)-4-(3-fluorophenyl)piperidin-4-yl)ethyl)piperidin-4-yl)carbamoyloxy)methyl)benzoate] | 0.041 µM |  |

— BindingDB's records for doi:10.1016/j.bmcl.2010.10.033 (Glaxosmithkline, 2010)
